Entries after “also recorded” stand apart in the source; their conditions may differ.
Experiments:
[1] = system: Immature Sprague Dawley CD (SD) BR female rats; test: In vivo Rat Follicle Maturation Assay (ovulated oocytes after r-hCG); conditions: for ovulatable oocytes compared with high dose of FSH alone: 0.4 mg/kg combined with low dose of FSH; for effect on FSH-induced follicle maturation: in vivo, with FSH
[2] = system: Immature Sprague Dawley CD (SD) BR female rats; test: Histological count of secondary and antral follicles in rat ovaries; assay type: in vivo
PDE1 = conditions: cited from earlier work
PDE3 = conditions: cited from earlier work
PDE5 = PDE5 (Homo sapiens, UniProt O76074); conditions: cited from earlier work
[3] = test compound 1 mg/kg×4 injections s.c. in NP3S with Low Dose FSH
[4] = test compound 1 mg/kg×4 s.c. in NP3S with Low Dose FSH
[5] = test compound 5 mg/kg×4 injections s.c. in NP3S with Low Dose FSH
[6] = test compound 5 mg/kg×4 s.c. in NP3S with Low Dose FSH
[7] = test compound 5 mg/kg×4 s.c. in aqueous vehicle with Low Dose FSH
[8] = test compound 25 mg/kg×4 injections s.c. in NP3S with Low Dose FSH
[9] = test compound 25 mg/kg×4 s.c. in NP3S with Low Dose FSH

With `CCCc1nn(C)c2c(=O)[nH]c(-c3cc(S(=O)(=O)N4CCN(C)CC4)ccc3OCC)nc12` [Sildenafil, 5-[2-ethoxy-5-(4-methyl-1-piperazinylsulphonyl)phenyl]-1-methyl-3-n-propyl-1,6-dihydro-7H-pyrazolo[4,3-d]pyrimidin-7-one] the “number of ovulated oocytes per rat as compared to Low Dose FSH alone plus aqueous vehicle control” value ([1]; 1, 5 and 25 mg/kg×4 s.c. in aqueous vehicle with Low Dose FSH) was “dose-related increase”, the “average number of oocytes per rat” value [1, 3] was 3.5 and the rats ovulated [1, 4] was 6 out of 8. The “average number of oocytes per rat” value [1, 5] was 5.5, the rats ovulated [1, 6] was 5 out of 8 and the “average number of oocytes per rat” value [1, 7] was 20. For the same compound, the rats ovulated [1, 7] was 7 out of 8, the “average number of oocytes per rat” value [1, 8] was 6.9 and the rats ovulated [1, 9] was 7 out of 8. The “Follicular growth activity with Low FSH?” value [1] was “YES”, the “total number of antral follicles per rat (2 ovaries)” value ([2]; Low FSH + 75 mg/kg Sildenafil) was 7.4 and the “total number of secondary follicles per rat (2 ovaries)” value ([2]; Low FSH + 75 mg/kg Sildenafil (25 mg/kg×3)) was 84. For the same compound, the IC50 (PDE1) was 260 nM and the IC50 (PDE3) was […].

In the case of `CN1CC(=O)N2[C@H](c3ccc4c(c3)OCO4)c3[nH]c4ccccc4c3C[C@@H]2C1=O` [Tadalafil, (6R,12aR)-2,3,6,7,12,12a-hexahydro-2-methyl-6-(-3,4-methylenedioxyphenyl)pyrazino[2′,1′:6,1]pyrido[3,4-b]indole-1,4-dione], the “average number of oocytes per rat” value ([1]; test compound 25 mg/kg×4 s.c. in water with Low Dose FSH) is listed as 16, the “Follicular growth activity with Low FSH?” value [1] is listed as “YES” and the IC50 (PDE1) is listed as > 30000 nM.

With `O=C(Nc1c(Cl)cncc1Cl)c1ccc(OC(F)F)c(OCC2CC2)c1` [Roflumilast] the “ovulatable oocytes compared with high dose of FSH alone” value [1] was “produces more ovulatable oocytes than even the high dose of FSH alone” and the “effect on FSH-induced follicle maturation” value [1] was “increased FSH-induced follicle maturation”.

With `OCCN(CCO)c1nc(N2CCCCC2)c2nc(N(CCO)CCO)nc(N3CCCCC3)c2n1` [Dipyridamole] the “average number of oocytes per rat” value [1, 3] was 7.5, the rats ovulated [1, 4] was 7 out of 10 and the “average number of oocytes per rat” value [1, 5] was 6.8. The rats ovulated [1, 6] was 6 out of 10, the “average number of oocytes per rat” value [1, 8] was 6.2 and the rats ovulated [1, 9] was 10 out of 10. The “Follicular growth activity with Low FSH?” value [1] was “YES”.

In the case of `COc1ccc([C@H](Cc2ccncc2)c2ccccc2)cc1OC1CCCC1` [CDP840], the “Follicular growth activity with Low FSH?” value [1] is reported as “Inhibits follicular growth”.

With `CCCOc1ccccc1-c1nc2nn[nH]c2c(=O)[nH]1` [Zaprinast] the “average number of oocytes per rat” value [1, 3] was 3.25, the rats ovulated [1, 4] was 6 out of 10 and the “average number of oocytes per rat” value [1, 5] was 6.4. For the same compound, the rats ovulated [1, 6] was 9 out of 10, the “average number of oocytes per rat” value [1, 8] was 9.5 and the rats ovulated [1, 9] was 10 out of 10. For the same compound, the “Follicular growth activity with Low FSH?” value [1] was “YES”, the IC50 (PDE1) was 9400 nM and the IC50 (PDE3) was > 100000 nM.

For `COc1ccc(C(=O)Nc2c(Cl)cncc2Cl)cc1OC1CCCC1` [Piclamilast], the “ovulatable oocytes compared with high dose of FSH alone” value [1] was “produces more ovulatable oocytes than even the high dose of FSH alone”, the “follicle maturation, compound alone” value ([1]; 2 mg/kg, without co-administration of FSH) was “did induce follicle maturation; also recorded: increased the hCG ovulatable oocytes” and the “follicle maturation, compound alone” value ([1]; 0.08 and 0.4 mg/kg, absence of exogenous FSH) was “not sufficient to induce follicle maturation”. For the same compound, the “follicle maturation (number of ovulatable oocytes)” value ([1]; in the presence of low doses of FSH) was “very marked induction in follicle maturation” and the “effect on FSH-induced follicle maturation” value [1] was “increased FSH-induced follicle maturation”.

With `CCCOc1cc([C@]2(C)CNC(=O)O2)ccc1OC` [Mesopram] the “follicular maturation, lower dose series” value ([1]; 0.032, 0.016, 0.08 mg/kg together with a low dose of FSH, significance at 0.08 mg/kg) was “dose dependent increase in follicular maturation”, the “follicular maturation versus low FSH alone” value ([1]; 0.08, 0.4, and 2 mg/kg/day together with a low dose of FSH) was “significant enhancement of follicular maturation” and the “follicular maturation at higher doses” value ([1]; higher doses of the 0.08-2 mg/kg/day series, with low dose FSH) was “decrease in follicular maturation”.

For `COc1ccc([C@]2(C#N)CC[C@@H](C(=O)O)CC2)cc1OC1CCCC1` [ARIFLO (Cilomilast), Cilomilast], the “Follicular growth activity with Low FSH?” value [1] was “Inhibits follicular growth”.

In the case of “5′-Methyl-2′(biphenylylmethyl)-3′-(phenylmethyl)spiro[cyclopentane-1,7′(8′h)-[3H]imidazo[2,1-b]purin]-4(5′h)-one [Compound no. 33]”, the “average number of oocytes per rat” value [1, 8] is listed as 27, the “Follicular growth activity with Low FSH?” value [1] is listed as “YES” and the IC50 (PDE1) is listed as 0.6 nM. The IC50 (PDE5) was 200 nM.

For “(6aR,9aS)-2-(Biphenylylmethyl)-5,6a,7,8,9,9a-hexahydro-5-methyl-3(phenylmethyl)cyclopent[4,5]imidazo-[2,1-b]purin-4(3H)-one [Compound no. 31]”, the “average number of oocytes per rat” value [1, 8] is listed as 18, the “Follicular growth activity with Low FSH?” value [1] is listed as “YES” and the IC50 (PDE1) is listed as 0.07 nM. The IC50 (PDE5) was 305 nM.
